Where a name gives a salt, the structure may show the parent alone.
Tests used:
[1] = test system: Lassa GP-pseudotyped-virus; assay: microbe, parasite or virus in culture; type: cell-based, Lassa fever virus; settings: Human immunodeficiency virus 1, read-out: Activity (EC50 in μM vs. pseudotyped virus) Lassa
[2] = test system: Machupo pseudotyped virus; assay: organism not typed; type: cell-based; settings: read-out: Activity (EC50 in μM vs. pseudotyped virus) Machupo
VSVg pseudotyped virus = assay: organism not typed; type: cell-based; settings: read-out: Activity (EC50 in μM vs. pseudotyped virus) VSVg
Junín pseudotyped virus = assay: organism not typed; type: cell-based; settings: read-out: Activity (EC50 in μM vs. pseudotyped virus) Junín

SMILES: CCOc1ccc(-n2cnc3cc(/C=C/c4ccc(CC)cc4)ccc32)cc1 [Compound 1, 1-(4-ethoxyphenyl)-5-[(E)-2-(4-ethylphenyl)vinyl]benzimidazole]
- EC50 [1]: < 1 µM
- EC50 [2]: < 1 µM
- EC50 (VSVg pseudotyped virus): 10 to 50 µM

SMILES: COC(=O)c1ccc(/C=C\c2ccc3c(c2)ncn3-c2ccc(OC(C)C)cc2)cc1 [Compound 37, methyl 4-[(Z)-2-[1-(4-isopropoxyphenyl)-benzimidazol-5-yl]vinyl]benzoate]
- EC50 [1]: < 1 µM
- EC50 [2]: < 1 µM
- EC50 (Junín pseudotyped virus): < 1 µM
- EC50 (VSVg pseudotyped virus): 10 to 50 µM

SMILES: CCOc1ccc(-n2cnc3ccc(CCc4ccc(CC)cc4)cc32)cc1 [Compound 35, 1-(4-ethoxyphenyl)-6-[2-(4-ethylphenyl)-ethyl]benzimidazole]
- EC50 [1]: < 1 µM
- EC50 [2]: < 1 µM
- EC50 (VSVg pseudotyped virus): 10 to 50 µM

SMILES: CC(C)Oc1ccc(-n2cnc3cc(/C=C\c4ccc(C(C)(C)C(F)(F)F)cc4)ccc32)cc1 [Compound 43, 1-(4-isopropoxyphenyl)-5-[(Z)-2-[4-(2,2,2-trifluoro-1,1-dimethyl-ethyl)phenyl]vinyl]benzimidazole]
- EC50 [1]: < 1 µM
- EC50 [2]: < 1 µM
- EC50 (VSVg pseudotyped virus): 1 to 10 µM

SMILES: CCOc1ccc(-n2cnc3cc(/C=C\c4ccc(OC(F)(F)F)cc4)ccc32)cc1 [Compound 11, 1-(4-ethoxyphenyl)-5-[(Z)-2-[4-(trifluoromethoxy)phenyl]vinyl]benzimidazole]
- EC50 [1]: < 1 µM
- EC50 [2]: < 1 µM
- EC50 (Junín pseudotyped virus): < 1 µM
- EC50 (VSVg pseudotyped virus): 10 to 50 µM

SMILES: CC(C)Oc1ccc(-n2cnc3cc(/C=C\c4ccc(C(C)(O)C(=O)O)cc4)ccc32)cc1 (centres unmarked) [Compound 55, 2-hydroxy-2-[4-[(Z)-2-[1-(4-isopropoxyphenyl)benzimidazol-5-yl]vinyl]phenyl]propanoic acid]
- EC50 [1]: < 1 µM
- EC50 (VSVg pseudotyped virus): > 50 µM

SMILES: COc1ccc(-n2cnc3cc(/C=C/c4ccc(C(C)C)cc4)cnc32)cc1 [Compound 25, 6-[(E)-2-(4-isopropylphenyl)vinyl]-3-(4-methoxyphenyl)imidazo[4,5-b]pyridine]
- EC50 [1]: 1 to 10 µM
- EC50 (VSVg pseudotyped virus): > 50 µM

SMILES: CCOc1ccc(-n2ccc3cc(NCc4ccc(CC)cc4)cnc32)cc1 [Compound 66, 1-(4-ethoxyphenyl)-N-[(4-ethylphenyl)-methyl]pyrrolo[2,3-b]pyridin-5-amine]
- EC50 [1]: < 1 µM
- EC50 [2]: 1 to 10 µM
- EC50 (VSVg pseudotyped virus): > 50 µM

SMILES: CC(C)Oc1ccc(-n2cnc3cc(/C=C\c4ccc(C5(O)CC5)cc4)ccc32)cc1 [Compound 48, 1-[4-[(Z)-2-[1-(4-isopropoxyphenyl)benzimidazol-5-yl]vinyl]phenyl]cyclopropanol]
- EC50 [1]: < 1 µM
- EC50 [2]: < 1 µM
- EC50 (Junín pseudotyped virus): < 1 µM
- EC50 (VSVg pseudotyped virus): 10 to 50 µM

SMILES: CCOc1ccc(-n2cnc3cc(/C=C\c4ccc(CC)cc4)cnc32)cc1 [Compound 22, 3-(4-ethoxyphenyl)-6-[(Z)-2-(4-ethylphenyl)vinyl]imidazo[4,5-b]pyridine]
- EC50 [1]: < 1 µM
- EC50 [2]: < 1 µM
- EC50 (Junín pseudotyped virus): < 1 µM
- EC50 (VSVg pseudotyped virus): 10 to 50 µM

SMILES: CCOc1ccc(-n2cnc3cc(CCc4ccc(CC)cc4)cnc32)cc1 [Compound 28, 3-(4-ethoxyphenyl)-6-[2-(4-ethylphenyl)-ethyl]imidazo[4,5-b]pyridine]
- EC50 [1]: < 1 µM
- EC50 [2]: < 1 µM
- EC50 (Junín pseudotyped virus): < 1 µM
- EC50 (VSVg pseudotyped virus): > 50 µM

SMILES: CCOc1ccc(-n2cnc3cc(/C=C/c4ccc(CC)cc4)cnc32)cc1 [Compound 23, 3-(4-ethoxyphenyl)-6-[(E)-2-(4-ethylphenyl)vinyl]imidazo[4,5-b]pyridine]
- EC50 [1]: 1 to 10 µM
- EC50 (VSVg pseudotyped virus): > 50 µM

SMILES: CC(C)Oc1ccc(-n2cnc3cc(/C=C\c4ccc(C5(N)CC5)cc4)ccc32)cc1 [Compound 54, 1-[4-[(Z)-2-[1-(4-isopropoxyphenyl)benzimidazol-5-yl]vinyl]phenyl]cyclopropanamine]
- EC50 [1]: < 1 µM
- EC50 [2]: < 1 µM
- EC50 (Junín pseudotyped virus): < 1 µM
- EC50 (VSVg pseudotyped virus): 10 to 50 µM

SMILES: CC(C)(C)Oc1ccc(-n2cnc3cc(/C=C/c4ccc(C(C)(C)C)cc4)ccc32)cc1 [Compound 16, 1-(4-tert-butoxyphenyl)-5-[(E)-2-(4-tert-butylphenyl)vinyl]benzimidazole]
- EC50 [1]: 1 to 10 µM
- EC50 (VSVg pseudotyped virus): 10 to 50 µM

SMILES: CC(C)Oc1ccc(-n2cnc3cc(/C=C\c4ccc(C5(O)CNC5)cc4)ccc32)cc1 [Compound 58, 3-[4-[(Z)-2-[1-(4-isopropoxyphenyl)benzimidazol-5-yl]vinyl]phenyl]azetidin-3-ol]
- EC50 [1]: 1 to 10 µM
- EC50 [2]: < 1 µM
- EC50 (Junín pseudotyped virus): < 1 µM
- EC50 (VSVg pseudotyped virus): 10 to 50 µM

SMILES: CCOc1ccc(-n2ccc3cc(NCc4ccc(CC)cc4)ccc32)cc1 [Compound 63, 1-(4-ethoxyphenyl)-N-[(4-ethylphenyl)-methyl]indol-5-amine]
- EC50 [1]: < 1 µM
- EC50 [2]: < 1 µM
- EC50 (VSVg pseudotyped virus): 10 to 50 µM

SMILES: CCOc1ccc(Cn2cnc3cc(NCc4ccc(CC)cc4)cnc32)cc1 [Compound 62, 3-[(4-ethoxyphenyl)methyl]-N-[(4-ethylphenyl)-methyl]imidazo[4,5-b]pyridin-6-amine]
- EC50 [1]: 1 to 10 µM
- EC50 [2]: 1 to 10 µM
- EC50 (VSVg pseudotyped virus): 1 to 10 µM

SMILES: CC(C)Oc1ccc(-n2cnc3cc(/C=C\c4ccc(CCC=O)cc4)ccc32)cc1 [Compound 44, 3-[4-[(Z)-2-[1-(4-isopropoxyphenyl)benzimidazol-5-yl]vinyl]phenyl]propanal]
- EC50 [1]: < 1 µM
- EC50 (VSVg pseudotyped virus): 10 to 50 µM

SMILES: CC(C)Oc1ccc(-n2cnc3cc(/C=C\c4ccc(C(C)(C)O)cc4)ccc32)nc1 [Compound 42, 2-[4-[(Z)-2-[1-(5-isopropoxy-2-pyridyl)benzimidazol-5-yl]vinyl]phenyl]propan-2-ol]
- EC50 [1]: < 1 µM
- EC50 [2]: < 1 µM
- EC50 (VSVg pseudotyped virus): 1 to 10 µM

SMILES: CCOc1ccc(-n2cnc3cc(/C=C/c4ccc(CC)cc4)ccc32)nc1 [Compound 18, 1-(5-ethoxy-2-pyridyl)-5-[(E)-2-(4-ethylphenyl)vinyl]benzimidazole hydrochloride]
- EC50 [1]: < 1 µM
- EC50 (Junín pseudotyped virus): 1 to 10 µM
- EC50 (VSVg pseudotyped virus): 10 to 50 µM

SMILES: CC(C)Oc1ccc(-n2cnc3cc(/C=C\c4ccc(C5(O)COC5)cc4)ccc32)cc1 [Compound 53, 3-[4-[(Z)-2-[1-(4-isopropoxyphenyl)benzimidazol-5-yl]vinyl]phenyl]oxetan-3-ol]
- EC50 [1]: < 1 µM
- EC50 [2]: < 1 µM
- EC50 (Junín pseudotyped virus): < 1 µM
- EC50 (VSVg pseudotyped virus): 1 to 10 µM

SMILES: CC(C)Oc1ccc(-n2cnc3cc(/C=C\c4ccc(C(C)(C)F)cc4)ccc32)cc1 [Compound 39, 5-[(Z)-2-[4-(1-fluoro-1-methyl-ethyl)phenyl]vinyl]-1-(4-isopropoxy-phenyl)benzimidazole]
- EC50 [1]: < 1 µM
- EC50 [2]: < 1 µM
- EC50 (Junín pseudotyped virus): < 1 µM
- EC50 (VSVg pseudotyped virus): 1 to 10 µM

SMILES: CC(C)Oc1ccc(-n2cnc3cc(/C=C\c4ccc(C5(O)CCCCC5)cc4)ccc32)cc1 [Compound 57, 1-[4-[(Z)-2-[1-(4-isopropoxyphenyl)benzimidazol-5-yl]vinyl]phenyl]cyclohexanol]
- EC50 [1]: < 1 µM
- EC50 [2]: < 1 µM
- EC50 (VSVg pseudotyped virus): 1 to 10 µM

SMILES: CCOc1ccc(-c2c[nH]c3cc(NCc4ccc(CC)cc4)ccc23)cc1 [Compound 64, 3-(4-ethoxyphenyl)-N-[(4-ethylphenyl)-methyl]-1H-indol-6-amine]
- EC50 [1]: < 1 µM
- EC50 [2]: < 1 µM
- EC50 (Junín pseudotyped virus): < 1 µM
- EC50 (VSVg pseudotyped virus): 10 to 50 µM

SMILES: COc1ccc(-n2cnc3cc(/C=C/c4ccc(C(C)C)cc4)ccc32)cc1 [Compound 3, 5-[(E)-2-(4-isopropylphenyl)vinyl]-1-(4-methoxyphenyl)benzimidazole]
- EC50 [1]: 1 to 10 µM
- EC50 (VSVg pseudotyped virus): 10 to 50 µM

SMILES: CC(C)Oc1ccc(-n2cnc3cc(/C=C\c4ccc(C5(O)CCCC5)cc4)ccc32)cc1 [Compound 56, 1-[4-[(Z)-2-[1-(4-isopropoxyphenyl)benzimidazol-5-yl]vinyl]phenyl]cyclopentanol]
- EC50 [1]: < 1 µM
- EC50 [2]: < 1 µM
- EC50 (VSVg pseudotyped virus): 1 to 10 µM

SMILES: CCCCC(O)(CCCC)c1ccc(/C=C\c2ccc3c(c2)ncn3-c2ccc(OC(C)C)cc2)cc1 [Compound 41, 5-[4-[(Z)-2-[1-(4-isopropoxyphenyl)benzimidazol-5-yl]vinyl]phenyl]nonan-5-ol]
- EC50 [1]: < 1 µM
- EC50 [2]: < 1 µM
- EC50 (VSVg pseudotyped virus): 10 to 50 µM

SMILES: CCOc1ccc(-n2cnc3cc(/C=C/c4ccc(C(C)(C)C)cc4)ccc32)nc1 [Compound 20, 5-[(E)-2-(4-tert-butylphenyl)vinyl]-1-(5-ethoxy-2-pyridyl)benzimidazole hydrochloride]
- EC50 [1]: < 1 µM
- EC50 (VSVg pseudotyped virus): 1 to 10 µM

SMILES: CCc1ccc(/C=C/c2ccc3c(c2)ncn3-c2ccc(OC(C)(C)C)cc2)cc1 [Compound 14, 1-(4-tert-butoxyphenyl)-5-[(E)-2-(4-ethylphenyl)-vinyl]benzimidazole]
- EC50 [1]: 1 to 10 µM
- EC50 (VSVg pseudotyped virus): 10 to 50 µM

SMILES: CC(C)Oc1ccc(-n2cnc3cc(/C=C/c4ccc(C(C)(C)C)cc4)ccc32)cc1 [Compound 6, 5-[(E)-2-(4-tert-butylphenyl)vinyl]-1-(4-isopropoxyphenyl)-benzimidazole]
- EC50 [1]: < 1 µM
- EC50 (VSVg pseudotyped virus): 10 to 50 µM

SMILES: CC(C)Oc1ccc(-n2cnc3cc(/C=C\c4ccc(C(O)(C(F)(F)F)C(F)(F)F)cc4)ccc32)cc1 [Compound 47, 1,1,1,3,3,3-hexafluoro-2-[4-[(Z)-2-[1-(4-isopropoxyphenyl)benzimidazol-5-yl]vinyl]phenyl]propan-2-ol]
- EC50 [1]: < 1 µM
- EC50 [2]: < 1 µM
- EC50 (VSVg pseudotyped virus): 1 to 10 µM

SMILES: CC(C)Oc1ccc(-n2cnc3cc(/C=C\c4ccc(C#N)cc4)ccc32)cc1 [Compound 49, 4-[(Z)-2-[1-(4-isopropoxyphenyl)benzimidazol-5-yl]vinyl]benzonitrile]
- EC50 [1]: < 1 µM
- EC50 (VSVg pseudotyped virus): 10 to 50 µM

SMILES: CC(C)Oc1ccc(-n2cnc3cc(/C=C\c4ccc(C(C)(O)C(F)(F)F)cc4)ccc32)cc1 (centres unmarked) [Compound 46, 1,1,1-trifluoro-2-[4-[(Z)-2-[1-(4-isopropoxyphenyl)benzimidazol-5-yl]vinyl]phenyl]propan-2-ol]
- EC50 [1]: < 1 µM
- EC50 [2]: < 1 µM
- EC50 (VSVg pseudotyped virus): 1 to 10 µM

SMILES: CCOc1ccc(-n2cnc3cc(/C=C/c4ccc(C(C)(C)C)cc4)ccc32)cc1 [Compound 4, 5-[(E)-2-(4-tert-butylphenyl)vinyl]-1-(4-ethoxyphenyl)-benzimidazole]
- EC50 [1]: < 1 µM
- EC50 (VSVg pseudotyped virus): 10 to 50 µM
